Laboratory results: PubChem BioAssay (NCI)
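Test compounds were applied to cells in 96-well plates for 48 hours at 5 doses. GI50 = concentration required for 50% inhibition of growth. TGI is the concentration that stops growth completely.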

Columns and labels:
Assay in all cases: inhibition of tumour cell growth, NCI panel, 48 h
[1] = test system: MDA-MB-231 breast
[2] = test system: HOP-62 NSCLC
[3] = test system: T-47D breast
[4] = test system: M14 melanoma
[5] = test system: NCI-H522 lung
[6] = test system: DU-145 prostate
[7] = test system: A498 renal
[8] = test system: SF-539 CNS
[9] = test system: UO-31 renal
[10] = test system: SK-MEL-2 melanoma

Row | Compound | GI50 [1] | TGI [1] | GI50 [2] | TGI [2] | GI50 [3] | TGI [3] | GI50 [4] | TGI [4] | GI50 [5] | TGI [5] | GI50 [6] | TGI [6] | GI50 [7] | TGI [7] | GI50 [8] | TGI [8] | GI50 [9] | TGI [9] | TGI [10] | GI50 [10]
1 | COc1cc(/C(Cl)=C/C=C/C(=O)c2c(C)[n+]([O-])c3ccc(Cl)cc3[n+]2[O-])cc(OC)c1OC | 6.94 µM | 17.8 µM | 7.68 µM | 24.4 µM | 10.7 µM | > 50 µM | 3.68 µM | 40.4 µM | 1.38 µM | 4.23 µM | 11.8 µM | > 50 µM | 15.7 µM | > 50 µM | 3.67 µM | > 50 µM | 2.63 µM | 18.7 µM | – | –
2 | C=CCC1OC(C)(C)Oc2ccc(OCOCCOC)cc21 (stereo not given) | – | – | – | > 100 µM | – | – | – | > 100 µM | – | – | – | – | – | > 100 µM | – | > 100 µM | – | > 100 µM | > 100 µM | –
3 | CC/C(Cc1ccccc1)=C(\c1ccc(OCCN2CCCCCC2)cc1)c1ccc(OC(=O)NCc2ccccc2)cc1 | 2.59 µM | 9.02 µM | 7.02 µM | 14.5 µM | 0.916 µM | 7.91 µM | 1.06 µM | 2.55 µM | 1.9 µM | 7.35 µM | 3.52 µM | 10.3 µM | – | – | 2.43 µM | 8.84 µM | 2.03 µM | 7.98 µM | 17.7 µM | 8.65 µM
4 | c1ccc(SC2(Sc3ccccc3)CCCC2)cc1 | – | – | – | > 100 µM | – | – | – | > 100 µM | – | > 100 µM | – | – | – | > 100 µM | – | > 100 µM | – | > 100 µM | > 100 µM | –
5 | Cc1[nH]ncc1-c1cc2nc(C3CC4CCN3CC4)[nH]c(=O)c2s1 (stereo not given) | 4.89 µM | > 100 µM | 2.83 µM | > 100 µM | – | – | 4.49 µM | 83.5 µM | 2.75 µM | 39.4 µM | 3 µM | > 100 µM | 1.98 µM | 8.72 µM | 1.47 µM | 7.74 µM | 2.91 µM | > 100 µM | 29.5 µM | 8.8 µM
6 | N=C(c1ccccc1)N(c1ccccc1)c1ccccc1 | – | – | – | > 100 µM | – | – | – | > 100 µM | – | > 100 µM | – | – | – | – | – | > 100 µM | – | > 100 µM | > 100 µM | –
7 | COc1cc2c(cc1O)C=NCC2 | – | – | – | – | – | – | – | > 100 µM | – | > 100 µM | – | – | – | > 100 µM | – | > 100 µM | – | > 100 µM | > 100 µM | –
8 | CCCCCCCCCCCOC(=S)NC(C)C | – | – | – | 36.6 µM | – | – | – | 60.6 µM | – | 39.7 µM | – | – | – | 39 µM | – | 35.4 µM | – | 32.2 µM | 40 µM | –
9 | O=[As](O)(O)c1ccc(NCc2ccccc2)cc1 | – | > 100 µM | – | > 100 µM | – | > 100 µM | – | > 100 µM | – | > 100 µM | – | > 100 µM | – | > 100 µM | – | – | – | > 100 µM | > 100 µM | –
10 | CC1CC2C3CC(F)C4=CC(=O)C=CC4(C)C3(F)C(O)CC2(C)C1(O)C(=O)COC(=O)C(C)(C)C (stereo not given) | – | – | – | > 100 µM | – | – | – | > 100 µM | – | > 100 µM | – | – | – | – | – | > 100 µM | – | > 100 µM | > 100 µM | –
11 | CN1C(=O)c2c(ccc3c2OCO3)C2C(O)Cc3cc4c(cc3C21)OCO4 (stereo not given) | – | 18.3 µM | – | – | – | – | – | > 100 µM | – | 9.28 µM | – | 43.1 µM | – | 9.29 µM | – | 16.8 µM | – | > 100 µM | 8.44 µM | –
12 | COc1cc2c(/C=N\N=C(N)N)c(Cl)[nH]c2cc1C | 6.4 µM | 20.8 µM | – | – | 2.96 µM | 9.12 µM | 12.5 µM | 25.2 µM | 21.4 µM | > 100 µM | – | – | 19.9 µM | 35 µM | 10.2 µM | 25 µM | 27.5 µM | 84.6 µM | > 100 µM | 34.5 µM
13 | O=C(O)c1ccccc1Cc1ccco1 | – | – | – | > 100 µM | – | – | – | > 100 µM | – | > 100 µM | – | – | – | > 100 µM | – | > 100 µM | – | > 100 µM | > 100 µM | –
14 | O=C(c1ccc2ccccc2c1O)N1CCCCC1 | – | > 100 µM | – | > 100 µM | – | > 100 µM | – | > 100 µM | – | – | – | > 100 µM | – | > 100 µM | – | > 100 µM | – | > 100 µM | > 100 µM | –
15 | O=C(NCCCCCCCCNC(=O)c1cnc2ccccc2n1)c1cnc2ccccc2n1 | – | – | – | > 100 µM | – | – | – | > 100 µM | – | – | – | – | – | > 100 µM | – | > 100 µM | – | > 100 µM | > 100 µM | –
16 | Nc1nc(CCC(=O)Nc2cccc(C(F)(F)F)c2)cc(-c2cccc3ccccc23)n1 | – | – | – | > 100 µM | – | – | – | > 100 µM | – | > 100 µM | – | – | – | > 100 µM | – | > 100 µM | – | > 100 µM | > 100 µM | –
17 | CCOc1ccc(NC(=O)CC2SC(=Nc3ccc(Cl)cc3)NC2=O)cc1 (stereo not given) | – | – | – | > 100 µM | – | – | – | > 100 µM | – | – | – | – | – | > 100 µM | – | > 100 µM | – | > 100 µM | > 100 µM | –
18 | CC1=C(C(=O)NCc2ccccc2)C(c2ccc(C3C(C(=O)NCc4ccccc4)=C(C)NC(C)=C3C(=O)NCc3ccccc3)cc2)C(C(=O)NCc2ccccc2)=C(C)N1 | – | – | – | 41.1 µM | – | – | – | 24.1 µM | – | 10.1 µM | – | – | – | 31.7 µM | – | 5.52 µM | – | 35.7 µM | 49.9 µM | –
19 | CCSc1nnc2c(-c3ccccc3)n[nH]c2n1 | – | > 100 µM | – | > 100 µM | – | > 100 µM | – | > 100 µM | – | > 100 µM | – | > 100 µM | – | – | – | > 100 µM | – | > 100 µM | > 100 µM | –
20 | O=C(O)CN(c1ccccc1)S(=O)(=O)c1ccc(NC(=O)c2ccccc2)cc1 | – | – | – | – | – | – | – | > 100 µM | – | > 100 µM | – | – | – | > 100 µM | – | > 100 µM | – | > 100 µM | > 100 µM | –
21 | O=S(=O)(Nc1ncccn1)c1ccc(N=Nc2ccc(O)c3ncccc23)cc1 | 15.9 µM | 97.1 µM | 9.15 µM | 76.1 µM | – | – | 8.59 µM | 26.6 µM | 5 µM | 25.7 µM | 12 µM | > 100 µM | 12.5 µM | 27.2 µM | 4.67 µM | 21.9 µM | 1.94 µM | 12.4 µM | 43.6 µM | 18.3 µM
